Test results taken from US9901592B2 (priority 2008, dated 2018).
Converted amounts (≈) assume the structure as drawn. “And” between values parts separate entries of the source, which are not always exact repeats. Equal values may be shown once. Read-outs that look alike come from different tables or passages of the source.

Experiments:
Format in all cases: cell-based
[1] = test system: M. hominis; settings: M. hominis (13 isolates)
[2] = test system: S. pneumoniae; assay: microbe, parasite or virus in culture; settings: for MIC90: Streptococcus pneumoniae
[3] = test system: S. pyogenes; assay: microbe, parasite or virus in culture; settings: for strains with resistant clones / strains tested: S. pyogenes; for MIC: Streptococcus pyogenes; for days until resistant clones (MIC increase): daily passages, max. 50
[4] = test system: S. pyogenes
[5] = test system: streptococci; assay: organism not typed
[6] = test system: M. fermentans; settings: M. fermentans (15 isolates); for MIC50 / MIC90: Mycoplasmopsis fermentans
[7] = test system: U. urealyticum; assay: MIC testing in 10B broth (colour change); settings: U. urealyticum (10 isolates)
[8] = test system: M. genitalium; settings: M. genitalium (5 isolates)
[9] = read-out: Initial MIC, strain 237 Macrolide-R [LA mutation], parent
[10] = read-out: Initial MIC, strain 2011 Macrolide-R [mef(A)], parent
[11] = read-out: Initial MIC, strain 2094 Macrolide-R [erm(A)], parent
[12] = read-out: Initial MIC, strain 2132 Macrolide-S, parent
[13] = read-out: Initial MIC, strain 2368 Macrolide-R [erm(B)], parent
[14] = read-out: MIC of parents of resistant clones, S. pyogenes
[15] = read-out: Parental MICs, S. pyogenes, 5 strains with varying resistotypes
[16] = read-out: Selected Resistance (MIC), strain 237 Macrolide-R [LA mutation], after serial passages in the drug
[17] = read-out: Selected Resistance (MIC), strain 2011 Macrolide-R [mef(A)], after serial passages in the drug
[18] = read-out: Selected Resistance (MIC), strain 2094 Macrolide-R [erm(A)], after serial passages in the drug
[19] = read-out: Selected Resistance (MIC), strain 2132 Macrolide-S, after serial passages in the drug
[20] = strain 237 Macrolide-R [LA mutation], clone selected with CEM-101
[21] = strain 237 Macrolide-R [LA mutation], clone selected with CLN
[22] = strain 2011 Macrolide-R [mef(A)], clone selected with AZI
[23] = strain 2094 Macrolide-R [erm(A)], clone selected with AZI
[24] = strain 2094 Macrolide-R [erm(A)], clone selected with CEM-101
[25] = strain 2094 Macrolide-R [erm(A)], clone selected with CLN
[26] = strain 2094 Macrolide-R [erm(A)], clone selected with CLR
[27] = strain 2094 Macrolide-R [erm(A)], clone selected with TEL
[28] = strain 2132 Macrolide-S, clone selected with AZI
[29] = strain 2368 Macrolide-R [erm(B)], clone selected with CEM-101
[30] = strain 2368 Macrolide-R [erm(B)], clone selected with TEL
[31] = strain 2132 Macrolide-S, 2 × MIC
[32] = strain 2132 Macrolide-S, 4 × MIC
[33] = strain 2132 Macrolide-S, 8 × MIC

CCC[C@@H]1C[C@@H](C(=O)N[C@@H]([C@H]2O[C@H](SC)[C@H](O)[C@@H](O)[C@H]2O)[C@H](C)Cl)N(C)C1 [CLN, clindamycin]
MIC Range [1]: ≦0.008-0.031 μg/mL | MIC50 ([1]; Metamycoplasma hominis, read-out: MIC50): ≤ 0.008 µg/mL | MIC90 ([1]; Metamycoplasma hominis, read-out: MIC90): 0.016 µg/mL (≈ 0.0376 µM) | nonsusceptibility [2]: 83.3% | MIC90 [2]: > 16 µg/mL | strains with resistant clones / strains tested [3]: 2/3 and 2/4 | MIC [3, 9]: 0.06 µg/mL (≈ 0.141 µM) | MIC [3, 10]: 0.06 µg/mL (≈ 0.141 µM) | MIC [3, 11]: 0.06 µg/mL (≈ 0.141 µM) | MIC [3, 12]: 0.06 µg/mL (≈ 0.141 µM) | MIC [3, 13]: > 64 µg/mL | MIC [3, 14]: 0.06 µg/mL | MIC [3, 15]: 0.06 µg/mL (≈ 0.141 µM) | MIC [3, 16]: 0.5 µg/mL (≈ 1.18 µM) | MIC [3, 17]: 0.06 µg/mL (≈ 0.141 µM) | MIC [3, 18]: > 64 µg/mL | MIC [3, 19]: 0.06 µg/mL (≈ 0.141 µM) | days until resistant clones (MIC increase) [3]: 34 to 43 days | Retest MIC after 10 Antibioticfree Subcultures [3, 20]: 0.03 µg/mL | Retest MIC after 10 Antibioticfree Subcultures [3, 21]: 1 µg/mL | Retest MIC after 10 Antibioticfree Subcultures [3, 22]: 0.06 µg/mL | Retest MIC after 10 Antibioticfree Subcultures [3, 23]: 0.06 µg/mL | Retest MIC after 10 Antibioticfree Subcultures [3, 24]: 0.06 µg/mL | Retest MIC after 10 Antibioticfree Subcultures [3, 25]: >64 µg/mL | Retest MIC after 10 Antibioticfree Subcultures [3, 26]: 0.06 µg/mL | Retest MIC after 10 Antibioticfree Subcultures [3, 27]: >64 µg/mL | Retest MIC after 10 Antibioticfree Subcultures [3, 28]: 0.03 µg/mL | Retest MIC after 10 Antibioticfree Subcultures [3, 29]: >64 µg/mL | Retest MIC after 10 Antibioticfree Subcultures [3, 30]: >64 µg/mL | single step mutation frequency ([4]; strain 237 Macrolide-R [L4 mutation], 2 × MIC): <1.0 × 10^−10 | single step mutation frequency ([4]; strain 237 Macrolide-R [L4 mutation], 4 × MIC): <1.0 × 10^−10 | single step mutation frequency ([4]; strain 237 Macrolide-R [L4 mutation], 8 × MIC): <1.0 × 10^−10 | single step mutation frequency ([4]; strain 2011 Macrolide-R [mef(A)], 2 × MIC): <1.0 × 10^−10 | single step mutation frequency ([4]; strain 2011 Macrolide-R [mef(A)], 4 × MIC): <1.0 × 10^−10 | single step mutation frequency ([4]; strain 2011 Macrolide-R [mef(A)], 8 × MIC): <1.0 × 10^−10 | single step mutation frequency ([4]; strain 2094 Macrolide-R [erm(A)], 2 × MIC): 2.1 × 10^−7 | single step mutation frequency ([4]; strain 2094 Macrolide-R [erm(A)], 4 × MIC): 1.3 × 10^−7 | single step mutation frequency ([4]; strain 2094 Macrolide-R [erm(A)], 8 × MIC): 1.1 × 10^−7 | single step mutation frequency [4, 31]: <7.7 × 10^−11 | single step mutation frequency [4, 32]: <7.7 × 10^−11 | single step mutation frequency [4, 33]: <7.7 × 10^−11 | MIC50 [5]: ≤ 0.12 µg/mL | MIC Range [6]: ≦0.008-0.063 μg/mL | MIC50 [6]: 0.016 µg/mL (≈ 0.0376 µM) | MIC90 [6]: 0.031 µg/mL (≈ 0.0729 µM)

CC[C@H]1OC(=O)[C@H](C)[C@@H](O[C@H]2C[C@@](C)(OC)[C@@H](O)[C@H](C)O2)[C@H](C)[C@@H](O[C@@H]2O[C@H](C)C[C@H](N(C)C)[C@H]2O)[C@](C)(O)C[C@@H](C)CN(C)[C@H](C)[C@@H](O)[C@]1(C)O [AZI, azithromycin]
MIC Range [1]: 0.5 to 4 µg/mL | MIC Range [7]: 0.5 to 4 µg/mL | MIC50 ([7]; Ureaplasma urealyticum): 2 µg/mL (≈ 2.67 µM) | MIC90 ([7]; Ureaplasma urealyticum): 4 µg/mL (≈ 5.34 µM) | MIC Range [8]: ≦0.000032-0.005 μg/mL | MIC90 [2]: > 16 µg/mL | strains with resistant clones / strains tested [3]: 3/4 | MIC [3, 9]: 4 µg/mL (≈ 5.34 µM) | MIC [3, 10]: 4 µg/mL (≈ 5.34 µM) | MIC [3, 11]: 4 µg/mL (≈ 5.34 µM) | MIC [3, 12]: 0.06 µg/mL (≈ 0.0801 µM) | MIC [3, 13]: > 64 µg/mL | MIC [3, 14]: 0.06 to 4 µg/mL | MIC [3, 15]: 0.06 to 4 µg/mL (≈ 0.0801 to 5.34 µM) | MIC [3, 16]: 8 µg/mL (≈ 10.7 µM) | MIC [3, 17]: 32 µg/mL (≈ 42.7 µM) | MIC [3, 18]: > 64 µg/mL | MIC [3, 19]: 1 µg/mL (≈ 1.34 µM) | days until resistant clones (MIC increase) [3]: 5 to 35 days | Retest MIC after 10 Antibioticfree Subcultures [3, 20]: 4 µg/mL | Retest MIC after 10 Antibioticfree Subcultures [3, 21]: 8 µg/mL | Retest MIC after 10 Antibioticfree Subcultures [3, 22]: 16 µg/mL | Retest MIC after 10 Antibioticfree Subcultures [3, 23]: >64 µg/mL | Retest MIC after 10 Antibioticfree Subcultures [3, 24]: 4 µg/mL | Retest MIC after 10 Antibioticfree Subcultures [3, 25]: 16 µg/mL | Retest MIC after 10 Antibioticfree Subcultures [3, 26]: >64 µg/mL | Retest MIC after 10 Antibioticfree Subcultures [3, 27]: >64 µg/mL | Retest MIC after 10 Antibioticfree Subcultures [3, 28]: 1 µg/mL | Retest MIC after 10 Antibioticfree Subcultures [3, 29]: >64 µg/mL | Retest MIC after 10 Antibioticfree Subcultures [3, 30]: >64 µg/mL | single step mutation frequency [4, 31]: <1.0 × 10^−10 | single step mutation frequency [4, 32]: <1.0 × 10^−10 | single step mutation frequency [4, 33]: <1.0 × 10^−10 | MIC50 [5]: 0.06 µg/mL (≈ 0.0801 µM) | MIC90 [5]: 0.12 µg/mL (≈ 0.16 µM) | MIC Range [5]: ≦0.008-0.5 μg/ml | MIC50 [6]: 0.5 µg/mL (≈ 0.668 µM) | MIC90 [6]: 0.5 µg/mL (≈ 0.668 µM)
